Measurements reported in paper PMC2964301, “Human α3β4 Neuronal Nicotinic Receptors Show Different Stoichiometry if They Are Expressed in Xenopus Oocytes or Mammalian HEK293 Cells” (PLoS ONE, 2010).

What was measured:
Assay type in all cases: cell-based
[1] = target: T1, human α3β4 nicotinic receptor in Xenopus oocytes, 1:9 α:β cRNA (putative two-α form) (Homo sapiens, UniProt P30926+P32297); test: two-electrode voltage clamp, extrapolated from low-concentration potency ratio; conditions: agonist, unreliable (extrapolated assuming identical efficacy to ACh)
T1 construct: gene CHRNA3; untagged; Xenopus laevis oocytes, 1:9 α:β cRNA; heteropentamer, putative (α3)2(β4)3
Target sequence in this assay (P30926 22-498): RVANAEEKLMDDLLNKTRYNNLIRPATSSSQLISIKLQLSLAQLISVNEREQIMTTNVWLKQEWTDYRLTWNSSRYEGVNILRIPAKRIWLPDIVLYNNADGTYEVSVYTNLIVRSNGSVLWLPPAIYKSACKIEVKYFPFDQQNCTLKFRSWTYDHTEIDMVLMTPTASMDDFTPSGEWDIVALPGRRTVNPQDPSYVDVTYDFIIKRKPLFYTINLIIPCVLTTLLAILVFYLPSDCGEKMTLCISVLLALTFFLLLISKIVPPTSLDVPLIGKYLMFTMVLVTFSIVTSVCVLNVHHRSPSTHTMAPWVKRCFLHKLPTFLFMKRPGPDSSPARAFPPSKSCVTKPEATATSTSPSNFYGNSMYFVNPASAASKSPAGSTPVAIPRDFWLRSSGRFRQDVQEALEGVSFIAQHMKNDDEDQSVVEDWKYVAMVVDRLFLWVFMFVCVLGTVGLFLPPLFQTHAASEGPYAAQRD
Target sequence in this assay (P32297 32-505): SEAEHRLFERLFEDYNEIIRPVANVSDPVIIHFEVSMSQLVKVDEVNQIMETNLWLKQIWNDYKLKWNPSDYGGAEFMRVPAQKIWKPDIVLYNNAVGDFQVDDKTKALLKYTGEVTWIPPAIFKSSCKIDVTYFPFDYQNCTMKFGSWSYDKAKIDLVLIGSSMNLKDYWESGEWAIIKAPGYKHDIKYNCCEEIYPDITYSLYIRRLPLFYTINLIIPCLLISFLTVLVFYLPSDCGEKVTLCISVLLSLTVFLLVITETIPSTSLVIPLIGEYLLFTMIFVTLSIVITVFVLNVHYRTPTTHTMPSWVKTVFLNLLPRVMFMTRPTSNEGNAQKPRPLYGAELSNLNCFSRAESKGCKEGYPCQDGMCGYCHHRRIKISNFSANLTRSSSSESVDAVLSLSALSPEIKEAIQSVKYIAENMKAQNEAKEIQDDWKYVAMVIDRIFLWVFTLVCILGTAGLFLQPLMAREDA

[2] = target: T2, human α3β4 nicotinic receptor in Xenopus oocytes, 9:1 α:β cRNA (putative three-α form) (Homo sapiens, UniProt P30926+P32297); test: as above; conditions: agonist, unreliable (extrapolated assuming identical efficacy to ACh)
T2 construct: gene CHRNA3; untagged; Xenopus laevis oocytes, 9:1 α:β cRNA; heteropentamer, putative (α3)3(β4)2
T2 sequence (P30926 22-498): as the sequence (P30926 22-498) above
T2 sequence (P32297 32-505): as the sequence (P32297 32-505) above

[3] = target: T1, human α3β4 nicotinic receptor in Xenopus oocytes, 1:9 α:β cRNA (putative two-α form); test: two-electrode voltage clamp, partial dose-response curves; conditions: agonist, -70 mV, pH 7.2, nominally Ca-free, 0.5 µM atropine, 18°C, low concentrations
Source text: two-electrode voltage clamp, partial dose-response curves on human α3β4 nicotinic receptor in Xenopus oocytes, 1:9 α:β cRNA (putative two-α form)

SMILES	EC 50 [1]	EC 50 [2]	Potency ratio [3]
C[N+]1(C)CCN(c2ccccc2)CC1 [DMPP, 1,1-dimethyl-4-phenylpiperazinium iodide]	~ 140 µM	~ 30 µM	
C[N+](C)(C)CCOC(N)=O [carbachol]			0.094±0.003
O=c1cccc2n1C[C@@H]1CNC[C@H]2C1 [cytisine]			1.40±0.15
Clc1ccc(C2CC3CCC2N3)cn1 (stereo not shown) [epibatidine]			6290±815
CN1[C@@H](CC(=O)c2ccccc2)CCC[C@H]1C[C@H](O)c1ccccc1 [lobeline]			7.35±0.56
CN1CCC[C@H]1c1cccnc1 [nicotine]			1.43±0.14
